System: not listed separately
Experiment: in vitro
Conditions: mouse

Row | Structure (SMILES) | IC50 at 5 days [µM]
1 | COCOc1cc(OCc2ccccc2)c2c(=O)cc(-c3ccc(OCCCc4cn(CCOCCOc5ccc(-c6cc(=O)c7ccccc7o6)cc5)nn4)cc3)oc2c1 [Ac4Az1, 5-(Benzyloxy)-7-(methoxymethoxy)-2-(4-(3-(1-(2-(2-(4-(4-oxo-4H-chromen-2-yl)phenoxy)ethoxy)ethyl)-1H-1,2,3-triazol-4-yl)propoxy)phenyl)-4H-chromen-4-one] | < 12.1
2 | Cc1ccc2oc(-c3ccc(OCCCCc4cn(CCOCCOCCOc5ccc(-c6oc7ccccc7c(=O)c6O)cc5)nn4)cc3)cc(=O)c2c1 [Ac5Az5OH, 3-Hydroxy-2-(4-(2-(2-(2-(4-(4-(4-(6-methyl-4-oxo-4H-chromen-2-yl)phenoxy)butyl)-1H-1,2,3-triazol-1-yl)ethoxy)ethoxy)ethoxy)phenyl)-4H-chromen-4-one] | < 12.1
3 | Cc1ccc2oc(-c3ccc(OCCCCc4cn(CCOCCOc5ccc(-c6oc7ccccc7c(=O)c6O)cc5)nn4)cc3)cc(=O)c2c1 [Ac5Az100H, 3-Hydroxy-2-(4-(2-(2-(4-(4-(4-(6-methyl-4-oxo-4H-chromen-2-yl)phenoxy)butyl)-1H-1,2,3-triazol-1-yl)ethoxy)ethoxy)phenyl)-4H-chromen-4-one] | < 12.1
4 | O=c1[nH]c(-c2ccc(OCCCc3cn(CCOCCOCCOc4ccc(-c5cc(=O)c6ccccc6o5)cc4)nn3)cc2)nc2ccccc12 [Ac11Az2, 2-(4-(3-(1-(2-(2-(2-(4-(4-oxo-4H-chromen-2-yl)phenoxy)ethoxy)ethoxy)ethyl)-1H-1,2,3-triazol-4-yl)propoxy)phenyl)quinazolin-4(3H)-one] | < 12.1
5 | C#CCOCCOc1ccc2c(=O)cc(-c3ccccc3)oc2c1 [Ac13, 2-Phenyl-7-(2-(prop-2-yn-1-yloxy)ethoxy)-4H-chromen-4-one] | 32.2
6 | O=c1cc(-c2ccc(OCCOCCOCCn3cc(COCCOc4ccc5c(=O)cc(-c6ccccc6)oc5c4)nn3)cc2)oc2ccccc12 [Ac13Az2, 7-(2-((1-(2-(2-(2-(4-(4-Oxo-4H-chromen-2-yl)phenoxy)ethoxy)ethoxy)ethyl)-1H-1,2,3-triazol-4-yl)methoxy)ethoxy)-2-phenyl-4H-chromen-4-one] | < 12.1
7 | O=c1cc(-c2ccccc2)oc2cc(OCCOCCOCCn3cc(COCCOc4ccc5c(=O)cc(-c6ccccc6)oc5c4)nn3)ccc12 [Ac13Az12, 7-(2-((1-(2-(2-(2-((4-Oxo-2-phenyl-4H-chromen-7-yl)oxy)ethoxy)ethoxy)ethyl)-1H-1,2,3-triazol-4-yl)methoxy)ethoxy)-2-phenyl-4H-chromen-4-one] | < 12.1
8 | C#CCN(CCOc1ccc2c(=O)cc(-c3ccccc3)oc2c1)Cc1ccccc1 [Ac16, 7-(2-(Benzyl(prop-2-yn-1-yl)amino)ethoxy)-2-phenyl-4H-chromen-4-one] | 58.2
9 | O=c1cc(-c2ccc(OCCOCCOCCn3cc(CN(CCOc4ccc5c(=O)cc(-c6ccccc6)oc5c4)Cc4ccccc4)nn3)cc2)oc2ccccc12 [Ac16Az2, 7-(2-(Benzyl((1-(2-(2-(2-(4-(4-oxo-4H-chromen-2-yl)phenoxy)ethoxy)ethoxy)ethyl)-1H-1,2,3-triazol-4-yl)methyl)amino)ethoxy)-2-phenyl-4H-chromen-4-one] | > 100

System: P-gp, MRP1 and BCRP transporters
Experiment: Selectivity for ABC transporters, determined from % of reversion (Tables 1 and 2)
Type: cell-based, human
Conditions: determined from % of reversion in Table 1 (>80% strongly, 79-50% moderately selective)
Source text: Generally, the triazole dimers library can be divided into mono-selective, dual-selective and multi-selective ABC transporter modulators. Table 2 summarizes the selectivity of different active triazole dimers and some monomeric azides for the ABC transporters. […] From the study, it seems that the simple monomeric azides could be a highly BCRP-selective inhibitor. […] It is possible that differently selective (mono-, dual- and multi-) inhibitors of drug transporters could be potentially useful tools for investigation of complicated drug-resistance phenotypes and eventually, for treatment of drug-resistant cancers caused by overexpression of ABC transporters.
The selectivity of active triazole compounds for various ABC transporters was determined from the Table 1. It would be considered as strongly selective if it causes >80% of reversion. It would be considered as moderately selective if it results in 79-50% of reversion. Overall, the active triazole compounds can be divided into mono-, dual- and multi-selective for P-gp, MRP1 and BCRP transporters.

Row | Structure (SMILES) | Selectivity for ABC transporters (P-gp, MRP1, BCRP)
10 | Cc1ccc2oc(-c3ccc(OCCCCc4cn(CCOCCOCCOc5ccc(-c6cc(=O)c7cc(C)ccc7o6)cc5)nn4)cc3)cc(=O)c2c1 [Ac5Az3, 6-Methyl-2-(4-(2-(2-(2-(4-(4-(4-(6-methyl-4-oxo-4H-chromen-2-yl)phenoxy)butyl)-1H-1,2,3-triazol-1-yl)ethoxy)ethoxy)ethoxy)phenyl)-4H-chromen-4-one] | P-gp and MRP1-dual-selectivity
11 | Cc1ccc2oc(-c3ccc(OCCCCc4cn(CCN(CCOc5ccc6c(=O)cc(-c7ccccc7)oc6c5)Cc5ccccc5)nn4)cc3)cc(=O)c2c1 [Ac5Az15, 2-(4-(4-(1-(2-(Benzyl(2-((4-oxo-2-phenyl-4H-chromen-7-yl)oxy)ethyl)amino)ethyl)-1H-1,2,3-triazol-4-yl)butoxy)phenyl)-6-methyl-4H-chromen-4-one] | P-gp and MRP1-dual-selectivity
12 | O=c1cc(-c2ccccc2)oc2cc(OCCCCc3cn(CCOCCOCCOc4ccc(-c5oc6ccccc6c(=O)c5OCc5ccccc5)cc4)nn3)ccc12 [Ac12Az5, 3-(Benzyloxy)-2-(4-(2-(2-(2-(4-(4-((4-oxo-2-phenyl-4H-chromen-7-yl)oxy)butyl)-1H-1,2,3-triazol-1-yl)ethoxy)ethoxy)ethoxy)phenyl)-4H-chromen-4-one] | multi-selectivity towards P-gp, MRP1 and BCRP transporters
13 | O=c1cc(-c2ccccc2)oc2cc(OCCOCCn3cc(COCCOc4ccc5c(=O)cc(-c6ccccc6)oc5c4)nn3)ccc12 [Ac13Az11, 7-(2-((1-(2-(2-((4-Oxo-2-phenyl-4H-chromen-7-yl)oxy)ethoxy)ethyl)-1H-1,2,3-triazol-4-yl)methoxy)ethoxy)-2-phenyl-4H-chromen-4-one] | mono-BCRP selectivity
14 | O=c1cc(-c2ccccc2)oc2cc(OCCOCCOCCn3cc(COCCOc4ccc5c(=O)cc(-c6ccccc6)oc5c4)nn3)ccc12 [Ac13Az12, 7-(2-((1-(2-(2-(2-((4-Oxo-2-phenyl-4H-chromen-7-yl)oxy)ethoxy)ethoxy)ethyl)-1H-1,2,3-triazol-4-yl)methoxy)ethoxy)-2-phenyl-4H-chromen-4-one] | mono-BCRP selectivity
15 | O=c1cc(-c2ccccc2)oc2cc(OCCOCCOCCn3cc(CN(Cc4ccccc4)Cc4cn(CCOCCOCCOc5ccc6c(=O)cc(-c7ccccc7)oc6c5)nn4)nn3)ccc12 [Ac15Az12, 7,7′-(((((((4,4′-((Benzylazanediyl)bis(methylene))bis(1H-1,2,3-triazole-4,1-diyl))bis(ethane-2,1-diyl))bis(oxy))bis(ethane-2,1-diyl))bis(oxy))bis(ethane-2,1-diyl))bis(oxy))bis(2-phenyl-4H-chromen-4-one)] | mono-BCRP selectivity
16 | [N-]=[N+]=NCCOCCOCCOc1ccc(-c2oc3ccccc3c(=O)c2OCc2ccccc2)cc1 [Az5, 2-(4-(2-(2-(2-Azidoethoxy)ethoxy)ethoxy)phenyl)-3-(benzyloxy)-4H-chromen-4-one] | mono-BCRP selectivity
17 | [N-]=[N+]=NCCOCCOCCOc1ccc(-c2cc(=O)c3cc(Cl)cc(Cl)c3o2)cc1 [Az6, 2-(4-(2-(2-(2-Azidoethoxy)ethoxy)ethoxy)phenyl)-6,8-dichloro-4H-chromen-4-one] | mono-BCRP selectivity
